In patent publication US20040141992A1, “Desensitizers” (priority 2001, published 2004):
Read-outs that look alike come from different tables or passages of the source. Values belong to the substance of their own block, whether it stands above or below them. No end group written: not given here.

How the values were obtained:
[1] = system: healthy volunteers; assay: Allergic skin test (intradermal injection, flare size) in healthy volunteers; format: in vivo, human; conditions: for positive skin reaction, number of cases: among 41 or 42 cases of healthy volunteers
Protocol: Therefore, it was investigated whether an allergic reaction to a peptide derived from the above self-antigen would also be observed in healthy volunteers. Skin tests were carried out with respect to self-derived tumor rejection antigen peptides capable of inducing cytotoxic T cells for 42 cases of healthy volunteers whose age ranges from 19 years old to 54 years old (mean age 29.2 years). For testing an allergic skin reaction, 10 μg of each peptide (50 μl volume) was intradermally injected, and evaluation was carried out 15 minutes after the injection. The results are summarized in Tables 1 to 4, wherein ‘NT’ and ‘S. T’ mean ‘not tested’ and ‘skin test’, respectively. −: longest diameter (D) of flare […] +: 10 mm≦D<30 mm ++: 30 mm≦D<50 mm +++: 50 mm≦D

[2] = system: cancer patients; assay: Skin test by pre-vaccination before phase I clinical trial in cancer patients
[3] = system: cancer patients; conditions: human, in vivo
[4] = system: skin reaction and serum IgE level against CypB84; assay: Phase I clinical trial of peptide vaccine using CypB91 in lung cancer patient; format: in vivo, human
Protocol: The phase I clinical trial of a peptide vaccine using CypB91 was carried out on a lung cancer patient whose skin reaction and serum IgE level against CypB84 were positive in the above allergic skin test. The skin reaction and serum IgE level against CypB91 of the patient were negative. […] A skin reaction and a serum […] level against CypB91 even after 3 times administration of CypB91 were substantially the same as those before administration, i.e., negative (FIG. 1B).

[5] = system: skin reaction and serum IgE level against ART413; conditions: human, in vivo
Protocol: The phase I clinical trial with ART475 was carried out on an ovarian cancer patient whose skin reaction against ART413 was positive. With respect to the patient, a skin reaction against ART475 was negative, and a specific IgE level in serum against ART413 and ART475 was low. […] Namely, an allergic reaction and a specific IgE level in serum against ART413 were reduced by administration of ART475.

[6] = system: skin reaction and serum IgE level against SART3315; conditions: human, in vivo
Protocol: The phase I clinical test using SART3109 was carried out on a colon cancer patient whose skin reaction against SART3315 was positive. With respect to the patient, a skin reaction against SART3109 was negative, and a specific IgE level in serum against SART3315 and SART3109 was low. […] Although a SART3109-specific IgE level in serum was increased by administration of SART3109, skin reactions before and after administration of the same were negative (FIG. 1F). Namely, an allergic reaction and the specific IgE level in serum against SART3315 were reduced by administration of SART3109.

[7] = positive donors / donors tested, healthy volunteers

Substance: AFLRHAAL [ART413, AFLRHAAL]
positive skin reaction, percent of healthy volunteers ([1]; healthy volunteers): 95% | S. T positive rate [1, 7]: 39/41 | allergic skin reaction ([2]; ovarian cancer patients): elicited an allergic skin reaction

Substance: CypB84F-Y: peptide obtained by partially modifying CypB84: phenylalanine (F) at the 2nd position replaced with tyrosine (Y) (KYHRVIKDF; Peptide consisting of 9 amino acid residues from the 84th residue to the 92nd residue of cyclophillin B)
immediate hypersensitivity skin reactions elicited [3]: eight of ten

Substance: CypB91-2F-Y: peptide obtained by replacing phenylalanine at the 2nd position of CypB91 with tyrosine (DYMIQGGDF; Designed peptide based on the peptide consisting of 9 amino acid residues from the 91st residue to the 99th residue of cyclophillin B)
inhibition of skin reaction and specific IgE level against CypB84, number of cases ([4]; among 10 cases tested, vaccination of CypB91 or CypB91-2F-Y): 9 cases

Substance: DFMIQGGDF [CypB91, DFMIQGGDF]
S. T positive rate ([1]; human, in vivo): 0/42 | skin reaction against CypB91 ([4]; after 3 times administration of CypB91): negative

Substance: DYPSLSATDI [ART475, DYPSLSATDI]
S. T positive rate [1, 7]: 1/41 | ART475-specific IgE level in serum [5]: gradually increased | skin reaction against ART475 [5]: negative

Substance: KFHRVIKDF [CypB84, KFHRVIKDF]
positive skin reaction, number of cases [1]: 40 cases | positive skin reaction, percent of healthy volunteers ([1]; healthy volunteers): 95% | S. T positive rate [1, 7]: 40/42 | immediate hypersensitivity skin reactions elicited ([2]; pre-vaccinated lung-cancer patients): eight of ten

Next, values leading:

S. T (skin test, size of inflammatory flare) ([1]; individual healthy donors, 10 μg peptide intradermally, evaluated 15 minutes after injection): − (longest diameter (D) of flare <30 mm) | S. T positive rate [1, 7]: 0/42
Substance: AYDFLYNYL [SART2161, AYDFLYNYL]

positive skin reaction, number of cases [1]: 18 cases | positive skin reaction, percent of healthy volunteers ([1]; healthy volunteers): 44% | S. T positive rate [1, 7]: 18/41
Substance: AYIDFEMKI [SART3315, AYIDFEMKI]

positive skin reaction, number of cases [1]: 10 cases | positive skin reaction, percent of healthy volunteers ([1]; healthy volunteers): 24% | S. T positive rate [1, 7]: 10/41
Substance: SYTRLFLIL [SART2899, SYTRLFLIL]

positive skin reaction, number of cases [1]: 7 cases | positive skin reaction, percent of healthy volunteers ([1]; healthy volunteers): 17% | S. T positive rate [1, 7]: 7/42 | SART3109-specific IgE level in serum [6]: increased | skin reactions against SART3109 [6]: negative
Substance: VYDYNCHVDL [SART3109, VYDYNCHVDL]
